Data set [1] concerns Methicillin-resistant Staphylococcus aureus (MRSA) CCARM 3095. Format: cell-based. Conditions: broth microdilution, 37 °C, 18–22 h. The procedure:
(§1) The bacterial strains employed in the experiment were Escherichia coli (KCTC 1682), Pseudomonas aeruginosa (KCTC 1637), Bacillus subtilis (KCTC 3068), Staphylococcus aureus (KCTC 1621), three methicillin-resistant Staphylococcus aureus (CCARM 3089, 3090 and 3095), two multidrug-resistant Pseudomonas aeruginosa (CCARM 2095 and 2109) and vancomycin-resistant Enterococcus faecium (ATCC 51559). The antimicrobial activities of polymers were determined by the broth microdilution method, and the procedures were used as previously reported. Briefly, bacteria grown to mid-logarithmic phase in LB broth were diluted to 2 × 10^6 CFU/mL in 1% peptone and added to serial two-fold dilutions of different polymers ranging from 1 to 64 μg/mL. The plates were incubated in a shaking incubator at 37 °C for 18–22 h. The minimum inhibitory concentration (MIC) was determined by confirming the absence of bacterial growth both visually and spectrophotometrically by OD600 readings taken by a microplate ELISA reader (Molecular Devices, Sunnyvale, CA, USA). All measurements were performed three times.
For orientation: Dilution methods test growth across graded concentrations, often in twofold steps.

Data set [2] relates to Methicillin-resistant Staphylococcus aureus (MRSA) CCARM 3089. Format: cell-based. Conditions: broth microdilution, 37 °C, 18–22 h. The protocol:
as §1

Data set [3] relates to Methicillin-resistant Staphylococcus aureus (MRSA) CCARM 3090. Type of data set: cell-based. Conditions: broth microdilution, 37 °C, 18–22 h. The procedure:
as §1

Data set [4] concerns Multidrug-resistant Pseudomonas aeruginosa (MDRPA) CCARM 2095. Format: cell-based. Conditions: broth microdilution, 37 °C, 18–22 h. The procedure: as §1
In data set [5] the test system is Multidrug-resistant Pseudomonas aeruginosa (MDRPA) CCARM 2109. Type of data set: cell-based. Conditions: broth microdilution, 37 °C, 18–22 h. The procedure:
as §1

The test system of a further data set is trypsin. Briefly: Protease stability, radial diffusion assay after tryptic digestion. Format: in vitro ADME. The following applies: trypsin 0.2 μg/mL in PBS, 37 °C (24 h, 4 h elsewhere in the source), clearance zones against E.coli and S.aureus. The procedure: The protease stability of triazine based polymers (TZP3 and TZP5) was performed by the radial diffusion assay as described previously. Briefly, a bacteria suspension (2×10^6 CFU/mL in LB) was mixed with 0.7% agarose. This mixture was poured into a 10-cm petri dish, and it dispersed rapidly. […] The reaction was stopped by freezing with liquid nitrogen, after which 10 μL aliquots were placed in each circle paper, put on the agarose plates, and then incubated at 37 °C overnight. The diameters of the bacterial clearance zones surrounding the circle paper were measured for the quantitation of inhibitory activities.

Values after ≈ are worked out from the molar mass of the structure shown.

These results are taken from publication PMC6805867, “Amphiphilic Triazine Polymer Derivatives as Antibacterial And Anti-atopic Agents in Mice Model” (Scientific Reports, 2019).

Turning to `CC[C@H](C)[C@H](NC(=O)CN)C(=O)NCC(=O)N[C@@H](C)C(=O)N[C@H](C(=O)N[C@@H](CC(C)C)C(=O)N[C@@H](CCCCN)C(=O)N[C@H](C(=O)N[C@@H](CC(C)C)C(=O)N[C@H](C(=O)N[C@H](C(=O)NCC(=O)N[C@@H](CC(C)C)C(=O)N1CCC[C@H]1C(=O)N[C@@H](C)C(=O)N[C@@H](CC(C)C)C(=O)N[C@H](C(=O)N[C@@H](CO)C(=O)N[C@@H](Cc1c[nH]c2ccccc12)C(=O)N[C@H](C(=O)N[C@@H](CCCCN)C(=O)N[C@@H](CCCNC(=N)N)C(=O)N[C@@H](CCCCN)C(=O)N[C@@H](CCCNC(=N)N)C(=O)N[C@@H](CCC(N)=O)C(=O)N[C@@H](CCC(N)=O)C(N)=O)[C@@H](C)CC)[C@@H](C)CC)[C@@H](C)O)[C@@H](C)O)C(C)C)C(C)C` [melittin, reference compound], the “MIC MRSA CCARM 3095” value in data set [1] is 16 µg/mL (≈ 5.62 µM). The “MIC MRSA CCARM 3089” value in data set [2] amounted to 8 µg/mL (≈ 2.81 µM). For the same molecule, the “MIC MRSA CCARM 3090” value in data set [3] stood at 8 µg/mL (≈ 2.81 µM). The “MIC MDRPA CCARM 2095” value in data set [4] was determined as 8 µg/mL (≈ 2.81 µM). The “MIC MDRPA CCARM 2109” value in data set [5] was determined as 8 µg/mL (≈ 2.81 µM). In the data set on trypsin, the “antibacterial activity after incubation with trypsin” value is “lose its antibacterial activity entirely”.
